Test results published in patent US10772931B2, “Collagen binding synthetic peptidoglycans for treatment of endothelial dysfunction” (Purdue Research Foundation, priority 2014, dated 2020).

Key:
[1] = tested on: Human aortic endothelial cells (EC); experiment: Metabolic activity (CellTiter 96 AQueous One, MTS), EC monolayers; type: cell-based; details: 10 ng/mL PDGF alone, 24 hrs
Protocol: (§1) Human aortic endothelial cells (EC, Invitrogen) were cultured in Media 200 (M200, Invitrogen), supplemented with (all from Invitrogen) 2% fetal bovine serum (FBS), 1 μg/mL hydrocortisone, 10 ng/mL epidermal growth factor (EGF), 3 ng/mL basic fibroblast growth factor (FGF), and 10 μg/mL heparin. Unless otherwise noted, cells were initially seeded at 3×10^5 cells/cm^2 in Ibidi angiogenesis μ-slide (Ibidi) and allowed to proliferate for 24 hrs to establish a confluent monolayer, prior to the application of treatments to the EC cultures. Cells were used between passage numbers 3 and 8 for all assays and maintained at 37° C. with 5% CO2.
Cultures were incubated in the presence of 0, 0.01, 0.1, 1, or 10 μM DS-SILY20, with and without 10 ng/mL PDGF, for 24 hrs. The metabolic activity of the cells was determined using the CellTiter 96 AQueous One Solution Cell Proliferation Assay (Promega). Briefly, media was mixed with 3-(4,5-dimethylthiazol-2-yl)-5-(3-carboxymethoxyphenyl)-2-(4-sulfophenyl)-2H-tetrazolium, inner salt (MTS) and cultures were re-incubated for 2 hrs at 37° C. with 5% CO2. The media containing MTS was then transferred into a 96-well plate and absorbance at 490 nm was measured.

thrombomodulin [2] = experiment: Thrombomodulin production in EC monolayers (Vascular Injury Marker I kit); type: cell-based, human; details: PDGF alone
Protocol: as §1
(§2) Following treatment with DS-SILY20 with or without 10 ng/mL PDGF for 24 hrs, cells were washed twice with ice cold PBS and solubilized in lysis buffer (9 M urea, 4% CHAPS, and phosphatase inhibitor cocktail-1 in Millipore water). Lysates were processed at 4° C. for 30 mins prior to centrifugation for 20 mins at 18,000×g to remove membrane components. A BCA assay protein kit (Pierce) was used to quantify total protein. […] After washing three times with PBS with 0.05% Tween-20, 2× Read buffer was added to the plate and imaged using a Sector Imager 2400A. Data were analyzed using the MSD Discovery Workbench Software.

E-selectin [3] = experiment: E-selectin production, quiescent co-cultures; type: cell-based, human; details: PDGF alone
Protocol: (§3) To better mimic the physiology of the vessel wall and further investigate the effects of therapeutics on ECs in a biologically relevant manner, two EC-SMC co-culture models, designed to mimic either healthy or diseased vasculature, were established. ECs were cultured as stated previously. Human coronary artery smooth muscle cells (SMC, Invitrogen) were cultured in Media 231 (M231, Invitrogen), supplemented with (all from Invitrogen) 4.9% FBS, 2 ng/mL FGF, […], 5 ng/mL heparin, 5 μg/mL insulin, and 0.2 μg/mL bovine serum albumin. SMCs were seeded at 5×10^4 cells/cm^2 in Ibidi angiogenesis μ-slide and allowed to proliferate for 24 hrs to allow the formation of multilayered cell constructs. Media was removed and cultures were treated either with proliferative media, as described above, or contractile media to induce a quiescent phenotype, for 24 hrs. […]
as §2, with “Lysates were processed at 4° C. for 30 mins prior to centrifugation for 20 mins at 18,000×g to remove membrane components.” left out

[4] = tested on: Human aortic endothelial cells (EC); experiment: EC migration on collagen (Oris Cell Migration Kit); type: cell-based; details: PDGF stimulation alone (10 ng/mL), 48 hrs
Protocol: Fibrillar collagen was coated in wells of 96-well Oris Cell Migration Kit (Platypus Technologies, Madison). Stoppers were inserted into the plate to block an inner circular portion of the well. ECs were seeded at 5×10^3 cells/well and grown to confluence in the outer portion of the well. After 48 hrs, the stoppers in the wells were removed and ECs were stained with cell tracker green (Invitrogen). To determine the effects of treatments on migration alone, ECs were dosed with 25 μg/mL mitomycin C (Sigma) for 30 mins to inhibit proliferation. Various DS-SILY20 concentrations, solubilized in M200+LSGS, were then incubated on the exposed collagen surface in the inner portion of the well for 15 min at 37° C. Unbound DS-SILY20 was rinsed from the surface and cell media, with or without 10 ng/mL PDGF, was returned to the wells. ECs were allowed to migrate from the outer to the inner portion of the wells for 48 hrs. At 48 hrs, fluorescence measurements of the center of each well were measured using a mask provided with the migration kit such that only the treated inner circular portion of the well was measured.

[5] = tested on: Human aortic endothelial cells (EC); experiment: EC proliferation (Hoescht 33342 nuclei stain); type: cell-based; details: PDGF alone (10 ng/mL), 24 hrs
Protocol: as §1
Cultures were incubated in the presence of DS-SILY20 with or without 10 ng/mL PDGF for 24 hrs. Cells were nuclei stained with Hoescht 33342 and […] to determine the effect of DS-SILY20 and PDGF on cell proliferation.

P-selectin [6] = experiment: P-selectin production, hyperplastic co-cultures; type: cell-based, human; details: PDGF alone
Protocol: as §3
as §2, with “Lysates were processed at 4° C. for 30 mins prior to centrifugation for 20 mins at 18,000×g to remove membrane components.” left out

interleukin-6 (IL-6) [7] = experiment: IL-6 production, hyperplastic co-cultures; type: cell-based, human; details: 10 ng/mL PDGF alone
Protocol: as §3
(§4) Cells were incubated in the presence of DS-SILY20 with or without 10 ng/mL PDGF for 24 hrs. […] After washing three times with PBS with 0.05% Tween-20, 2× read buffer was added to the plate and imaged using a Sector Imager 2400A (Meso Scale Discovery). […] Data were analyzed using the MSD Discovery Workbench Software.

P-selectin [8] = experiment: P-selectin production, quiescent co-cultures; type: cell-based, human; details: PDGF alone
Protocol: as §3
as §2, with “Lysates were processed at 4° C. for 30 mins prior to centrifugation for 20 mins at 18,000×g to remove membrane components.” left out

[9] = tested on: quiescent EC-SMC co-cultures; experiment: Metabolic activity (MTS), quiescent EC-SMC co-cultures; type: cell-based, human; details: PDGF stimulation alone
Protocol: as §3
(§5) Cultures were incubated in the presence of 0, 0.01, 0.1, 1, or 10 μM DS-SILY20, with and without 10 ng/mL PDGF, for 24 hrs. The metabolic activity of the cells was determined using the CellTiter 96 AQueous One Solution Cell Proliferation Assay (Promega). […] The media containing MTS was then transferred into a 96-well plate and absorbance at 490 nm was measured.

[10] = tested on: tumor necrosis factor-α (TNF-α); experiment: TNF-α production, hyperplastic co-cultures; type: cell-based, human; details: 10 ng/mL PDGF alone
Protocol: as §3, §4

thrombomodulin [11] = experiment: Thrombomodulin production, quiescent co-cultures; type: cell-based, human; details: PDGF alone
Protocol: as §3
as §2, with “Lysates were processed at 4° C. for 30 mins prior to centrifugation for 20 mins at 18,000×g to remove membrane components.” left out

[12] = tested on: hyperplastic EC-SMC co-cultures; experiment: Metabolic activity (MTS), hyperplastic EC-SMC co-cultures; type: cell-based, human; details: PDGF stimulation alone
Protocol: as §3, §5

P-selectin [13] = experiment: P-selectin production in EC monolayers (Vascular Injury Marker I kit); type: cell-based, human; details: PDGF alone
Protocol: as §1, §2

interferon-γ (IFN-γ) [14] = experiment: IFN-γ production, hyperplastic co-cultures; type: cell-based, human; details: 10 ng/mL PDGF alone
Protocol: as §3, §4

E-selectin [15] = experiment: E-selectin production, hyperplastic co-cultures; type: cell-based, human; details: PDGF alone
Protocol: as §3
as §2, with “Lysates were processed at 4° C. for 30 mins prior to centrifugation for 20 mins at 18,000×g to remove membrane components.” left out

E-selectin [16] = experiment: E-selectin production in EC monolayers (Vascular Injury Marker I kit); type: cell-based, human; details: 10 ng/mL PDGF alone
Protocol: as §1, §2

ERK-1/2 = ERK-1/2 phosphorylation in EC monolayers; type: cell-based, human; details: 10 ng/mL PDGF alone, 10 mins
Protocol: (§6) The phosphorylation of mitogen-activated protein kinases (MAPK), including extracellular signal-related kinase (ERK) and p38 MAPK (p38), was examined. Cells were incubated in the presence of DS-SILY20 with or without 10 ng/mL PDGF for […] prior to washing with ice cold tris buffered saline (TBS) and solubilized in lysis buffer (150 mM NaCl, 20 mM Tris, 1 mM EDTA, 1 mM EGTA, 1% Triton-X-100, plus protease inhibitors and phosphatase inhibitors). Lysates were processed at 4° C. for 30 mins prior to centrifugation for 20 mins at 18,000×g to remove membrane components. Phospho-p38 (Thr180/Tyr182) and phospho-ERK-1/2 (Thr/Tyr: 202/204; 185/187) levels were evaluated using the MAP Kinase Whole Cell Lysate kit (Meso Scale Discovery); Total p38 and total ERK-1/2 were determined via MAP Kinase (Total Protein) Whole Cell Lysate Kit (Meso Scale Discovery), according to manufacturer's instructions. Briefly, plates were warmed to room temperature and incubated with 25 μL of samples for 3 hrs at room temperature with vigorous shaking. Following gentle rinsing of the wells, the detection antibody was then added and incubated for 1 hr at room temperature with vigorous shaking. After washing three times with TBS, 2× read buffer was added to the plate and imaged using a Sector Imager 2400A. Data were analyzed using the MSD Discovery Workbench Software. […]

p38 MAPK (p38) = experiment: p38 MAPK phosphorylation in EC monolayers; type: cell-based, human; details: PDGF alone
Protocol: as §6

thrombomodulin [17] = experiment: Thrombomodulin production, hyperplastic co-cultures; type: cell-based, human; details: PDGF alone
Protocol: as §3
as §2, with “Lysates were processed at 4° C. for 30 mins prior to centrifugation for 20 mins at 18,000×g to remove membrane components.” left out

interleukin-6 (IL-6) [18] = experiment: IL-6 expression in EC monolayers (Pro-Inflammatory I kit); type: cell-based, human; details: 10 ng/mL PDGF alone, 24 hrs
Protocol: as §1
Cells were incubated in the presence of DS-SILY20 with or without 10 ng/mL PDGF for 24 hrs. Media was removed from the cultures and a Pro-Inflammatory I kit (Meso Scale Discovery) was used to analyze cytokine production from EC monolayers, hyperplastic co-cultures, and quiescent co-cultures according to manufacturer's instructions. Briefly, plates were warmed to room temperature and incubated with 25 μL of samples and standards for 2 hrs at room temperature with vigorous shaking. […] After washing three times with PBS with 0.05% Tween-20, 2× read buffer was added to the plate and imaged using a Sector Imager 2400A (Meso Scale Discovery). […] Data were analyzed using the MSD Discovery Workbench Software.

PDGF receptor β (PDGFRβ) = experiment: PDGFRβ phosphorylation in ECs (sandwich ELISA); type: cell-based, human; details: EC monolayers, PDGF treatment alone (10 ng/mL)
Protocol: Cells were incubated in the presence of DS-SILY20 with and without 10 ng/mL PDGF for 60 mins prior to washing with ice cold TBS and […] solubilized in lysis buffer (1% NP-40 Alternative, 20 mM Tris, 137 mM NaCl, 10% glycerol, 2 mM EDTA, 1 mM activated sodium orthovanadate, 10 μg/mL Aprotinin, and 10 μg/mL Leupeptin). Lysates were processed at 4° C. for 30 mins prior to centrifugation for 5 mins at 2000×g to remove membrane components. Sandwich ELISAs (all from R&D systems) were utilized to measure total PDGF receptor β (PDGFRβ) and total phosphotyrosine PDGFRβ. All assays were performed following the manufacturer's protocol.

interferon-γ (IFN-γ) [19] = experiment: IFN-γ production, quiescent co-cultures; type: cell-based, human; details: 10 ng/mL PDGF alone
Protocol: as §3, §4

[20] = tested on: tumor necrosis factor-α (TNF-α); experiment: TNF-α production, quiescent co-cultures; type: cell-based, human; details: 10 ng/mL PDGF alone
Protocol: as §3, §4

- phospho-PDGFRβ levels (PDGF receptor β (PDGFRβ)): significantly increased
Substance: platelet-derived growth factor [PDGF]
- metabolic activity of ECs [1]: did not influence
- thrombomodulin expression (thrombomodulin [2]): induced
- E-selectin expression (E-selectin [3]): did not stimulate
- enhancement of EC migration [4]: 40.3%
- EC proliferation [5]: significantly increased
- P-selectin production (P-selectin [6]): significantly increased
- production of IL-6 vs no treatment controls (interleukin-6 (IL-6) [7]): significantly increased
- P-selectin production (P-selectin [8]): significantly increased
- metabolic activity [9]: not impacted
- production of TNF-α vs no treatment controls [10]: significantly increased
- thrombomodulin production (thrombomodulin [11]): significantly increased
- metabolic activity [12]: not impacted
- P-selectin expression (P-selectin [13]): induced
- production of IFN-γ vs no treatment controls (interferon-γ (IFN-γ) [14]): significantly increased
- E-selectin expression (E-selectin [15]): did not stimulate
- E-selectin production vs no treatment controls (E-selectin [16]): did not alter
- ERK-1/2 phosphorylation vs no treatment controls (ERK-1/2): increased
- phosphorylation of p38 (p38 MAPK (p38)): did not alter
- thrombomodulin production (thrombomodulin [17]): significantly increased
- IL-6 production vs no treatment controls (interleukin-6 (IL-6) [18]): did not alter
- production of IFN-γ vs no treatment controls (interferon-γ (IFN-γ) [19]): significantly increased
- production of TNF-α vs no treatment controls [20]: significantly increased
